Reference: ChEMBL document CHEMBL1201862, “PubChem BioAssay data set” (2004)
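Assay format: 96-well plates, 48-hour exposure. GI50 = concentration required for 50% inhibition of growth.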 Calls of active or inactive are those of the source. Cut-off read from the data, not from the text of the source: active = GI50 up to about 1.1 µM and inactive = higher. Where a SMILES comes first, the peptide text is derived from it. [ ]: non-standard residue; d: D form. The star is where a group is joined. Bn2Val = CC(C)[C@@H](C(=O)*)N(Cc1ccccc1)Cc1ccccc1; NHPiperonyl = c1cc2c(cc1CN*)OCO2; NMeV = CN[C@H](C(=O)O)C(C)C; dNMeA = CN[C@H](C)C(=O)O

What was measured:
Assay in all cases: NCI tumour cell line growth inhibition, 48 h
Hs-578T = system: Hs-578T
RXF 393 = system: RXF 393
M14 = system: M14
HOP-62 = system: HOP-62
NCI-H460 = system: NCI-H460
EKVX = system: EKVX
SF-539 = system: SF-539
HL-60 = system: HL-60
SW-620 = system: SW-620
HCC 2998 = system: HCC 2998
OVCAR-5 = system: OVCAR-5
SN12C = system: SN12C
UO-31 = system: UO-31
LOX IMVI = system: LOX IMVI
SF-268 = system: SF-268
COLO 205 = system: COLO 205
CAKI-1 = system: CAKI-1
DU-145 = system: DU-145
SK-OV-3 = system: SK-OV-3
T47D = system: T47D

SMILES	GI50 (Hs-578T)	GI50 (RXF 393)	GI50 (M14)	GI50 (HOP-62)	GI50 (NCI-H460)	GI50 (EKVX)	GI50 (SF-539)	GI50 (HL-60)	GI50 (SW-620)	GI50 (HCC 2998)	GI50 (OVCAR-5)	GI50 (SN12C)	GI50 (UO-31)	GI50 (LOX IMVI)	GI50 (SF-268)	GI50 (COLO 205)	GI50 (CAKI-1)	GI50 (DU-145)	GI50 (SK-OV-3)	GI50 (T47D)
O=c1[nH]n(Cc2ccccc2Cl)c2ccccc12	> 100 µM (inactive)	> 10 µM (inactive)	> 100 µM (inactive)	> 100 µM (inactive)	> 100 µM (inactive)	> 100 µM (inactive)	> 100 µM (inactive)	> 100 µM (inactive)	> 100 µM (inactive)	> 100 µM (inactive)	> 100 µM (inactive)	> 100 µM (inactive)	> 100 µM (inactive)	> 100 µM (inactive)	40.6 µM (inactive)	> 100 µM (inactive)	> 100 µM (inactive)	> 100 µM (inactive)	–	–
CC(C)=CC(C)C(C(O)CCC1(c2ccoc2)OCCO1)S(=O)(=O)c1ccccc1 (configuration not stated)	–	> 100 µM (inactive)	> 100 µM (inactive)	> 100 µM (inactive)	> 100 µM (inactive)	> 100 µM (inactive)	> 100 µM (inactive)	–	> 100 µM (inactive)	> 100 µM (inactive)	> 100 µM (inactive)	> 100 µM (inactive)	> 100 µM (inactive)	> 100 µM (inactive)	> 100 µM (inactive)	> 100 µM (inactive)	> 100 µM (inactive)	–	> 100 µM (inactive)	> 100 µM (inactive)
COc1ccc(CNc2nc3cc(C(F)(F)F)ccc3nc2C(=O)O)cc1OC	–	–	32 µM (inactive)	22 µM (inactive)	36.6 µM (inactive)	31.8 µM (inactive)	32.5 µM (inactive)	–	43.5 µM (inactive)	36 µM (inactive)	46 µM (inactive)	26.8 µM (inactive)	28.3 µM (inactive)	33.7 µM (inactive)	–	22.5 µM (inactive)	28.6 µM (inactive)	41.4 µM (inactive)	29.7 µM (inactive)	37.8 µM (inactive)
Cc1ccc(NCC(=O)N2CC(=O)Nc3ccccc32)cc1	–	> 100 µM (inactive)	> 100 µM (inactive)	> 100 µM (inactive)	> 100 µM (inactive)	> 100 µM (inactive)	> 100 µM (inactive)	> 100 µM (inactive)	> 100 µM (inactive)	> 100 µM (inactive)	> 100 µM (inactive)	> 100 µM (inactive)	> 100 µM (inactive)	> 100 µM (inactive)	> 100 µM (inactive)	> 100 µM (inactive)	> 100 µM (inactive)	–	> 100 µM (inactive)	–
CCCCCCCCCCCC[N+]12CC[N+](CCN)(CC1)CC2	–	5.62 µM (inactive)	> 100 µM (inactive)	68.5 µM (inactive)	29.2 µM (inactive)	> 100 µM (inactive)	89.7 µM (inactive)	27.7 µM (inactive)	> 100 µM (inactive)	35 µM (inactive)	17.2 µM (inactive)	76.7 µM (inactive)	> 100 µM (inactive)	37.8 µM (inactive)	37.2 µM (inactive)	39.3 µM (inactive)	19.2 µM (inactive)	–	> 100 µM (inactive)	–
O=[N+]([O-])/C=C/c1cn(CCCCCCCCCCCCn2cc(/C=C/[N+](=O)[O-])c3ccccc32)c2ccccc12	> 100 µM (inactive)	–	> 100 µM (inactive)	> 100 µM (inactive)	> 100 µM (inactive)	> 100 µM (inactive)	> 100 µM (inactive)	> 100 µM (inactive)	> 100 µM (inactive)	> 100 µM (inactive)	> 100 µM (inactive)	> 100 µM (inactive)	> 100 µM (inactive)	> 100 µM (inactive)	–	> 100 µM (inactive)	> 100 µM (inactive)	> 100 µM (inactive)	> 100 µM (inactive)	–
Cc1cc(C)nc(NS(=O)(=O)c2ccc(Nc3c4ccc(Cl)cc4nc4c(C(=O)NCCN(C)C)cccc34)cc2)n1	–	> 100 µM (inactive)	> 100 µM (inactive)	> 100 µM (inactive)	> 100 µM (inactive)	> 100 µM (inactive)	> 100 µM (inactive)	> 100 µM (inactive)	> 100 µM (inactive)	> 100 µM (inactive)	> 100 µM (inactive)	> 100 µM (inactive)	> 100 µM (inactive)	> 100 µM (inactive)	> 100 µM (inactive)	> 100 µM (inactive)	> 100 µM (inactive)	–	> 100 µM (inactive)	–
CC(C)[C@H](NC(=O)[C@H](C(C)C)N(Cc1ccccc1)Cc1ccccc1)C(=O)N(C)[C@H](C(=O)N1CCC[C@H]1C(=O)N(C)[C@H](C)C(=O)NCc1ccc2c(c1)OCO2)C(C)C (Bn2Val-V[NMeV]P[dNMeA]-NHPiperonyl)	39.1 µM (inactive)	–	25.5 µM (inactive)	29.9 µM (inactive)	3.93 µM (inactive)	4.98 µM (inactive)	3.37 µM (inactive)	1.17 µM (inactive)	4.49 µM (inactive)	3.23 µM (inactive)	4.38 µM (inactive)	–	21.6 µM (inactive)	5.9 µM (inactive)	17.7 µM (inactive)	2.15 µM (inactive)	19.9 µM (inactive)	11.6 µM (inactive)	41.6 µM (inactive)	–
COC(=O)c1cc(O)ccc1O [METHYL 2,5-DIHYDROXYBENZOATE]	–	> 100 µM (inactive)	> 100 µM (inactive)	> 100 µM (inactive)	> 100 µM (inactive)	> 100 µM (inactive)	> 100 µM (inactive)	> 100 µM (inactive)	> 100 µM (inactive)	> 100 µM (inactive)	> 100 µM (inactive)	> 100 µM (inactive)	> 100 µM (inactive)	> 100 µM (inactive)	> 100 µM (inactive)	> 100 µM (inactive)	> 100 µM (inactive)	–	> 100 µM (inactive)	–
CCCC(=O)Nc1cc(/C=C/C(=O)N2CC(CCl)c3c2cc([N+](=O)[O-])c2ccccc32)n(C)c1 (configuration not stated)	–	59.4 µM (inactive)	> 100 µM (inactive)	> 35.1 µM (inactive)	7.57 µM (inactive)	–	56.1 µM (inactive)	0.767 µM (active)	> 100 µM (inactive)	14.5 µM (inactive)	> 100 µM (inactive)	> 100 µM (inactive)	> 75.3 µM (inactive)	–	> 100 µM (inactive)	> 100 µM (inactive)	47.1 µM (inactive)	0.632 µM (active)	> 100 µM (inactive)	> 100 µM (inactive)
CC(C)(C)CNC(=O)NCn1cc(-c2ccccc2)nn1	–	–	> 100 µM (inactive)	> 100 µM (inactive)	> 100 µM (inactive)	> 100 µM (inactive)	> 100 µM (inactive)	> 100 µM (inactive)	> 100 µM (inactive)	> 100 µM (inactive)	> 100 µM (inactive)	> 100 µM (inactive)	–	> 100 µM (inactive)	> 100 µM (inactive)	> 100 µM (inactive)	> 100 µM (inactive)	> 100 µM (inactive)	–	–
Fc1nc(F)nc(-c2c3ccccc3c3n2CCS3)n1	–	91.2 µM (inactive)	71.1 µM (inactive)	39.7 µM (inactive)	61.4 µM (inactive)	> 100 µM (inactive)	> 100 µM (inactive)	46.8 µM (inactive)	> 100 µM (inactive)	> 100 µM (inactive)	> 100 µM (inactive)	> 100 µM (inactive)	84.5 µM (inactive)	61.4 µM (inactive)	70.5 µM (inactive)	> 100 µM (inactive)	> 100 µM (inactive)	–	> 100 µM (inactive)	–
CCC1(CCSC(=N)N)C(=O)NC(=O)NC1=O	> 100 µM (inactive)	> 100 µM (inactive)	> 100 µM (inactive)	> 100 µM (inactive)	> 100 µM (inactive)	> 100 µM (inactive)	> 100 µM (inactive)	48.9 µM (inactive)	> 100 µM (inactive)	> 100 µM (inactive)	> 100 µM (inactive)	> 100 µM (inactive)	> 100 µM (inactive)	> 100 µM (inactive)	> 100 µM (inactive)	> 100 µM (inactive)	> 100 µM (inactive)	> 100 µM (inactive)	> 100 µM (inactive)	–
C1=CC=C2NCCCCCCC/N=C3/C=CC=CC=C3NCCCCCCC/N=C\2C=C1	–	16.9 µM (inactive)	10 µM (inactive)	10 µM (inactive)	25.4 µM (inactive)	> 100 µM (inactive)	30.9 µM (inactive)	43.5 µM (inactive)	79.6 µM (inactive)	> 100 µM (inactive)	> 100 µM (inactive)	> 100 µM (inactive)	> 100 µM (inactive)	54.2 µM (inactive)	> 100 µM (inactive)	> 100 µM (inactive)	> 100 µM (inactive)	–	10 µM (inactive)	–
C1=CC2C(C3CN(c4ccccc4)N=C13)C1C3C4C=CC21C=CC43 (configuration not stated)	> 100 µM (inactive)	0.172 µM (active)	> 100 µM (inactive)	> 100 µM (inactive)	> 100 µM (inactive)	> 100 µM (inactive)	> 100 µM (inactive)	> 100 µM (inactive)	> 100 µM (inactive)	> 100 µM (inactive)	> 100 µM (inactive)	> 100 µM (inactive)	> 100 µM (inactive)	> 100 µM (inactive)	> 100 µM (inactive)	> 100 µM (inactive)	> 100 µM (inactive)	–	> 100 µM (inactive)	0.189 µM (active)
